Measured values reported in patent EP4745135A1 (Gluetacs Therapeutics (Shanghai) Co., Ltd., priority 2023, dated 2025).

Assays:
[1] = target: T1, CK1α (Homo sapiens, UniProt P48729+Q96SW2); assay: Western blot, degradation of substrate protein in hPBMCs; type: cell-based
T1 construct: effects of the compounds of the present disclosure on the expression of target proteins in cells; endogenous in cells; host or cells: human PBMCs (Milecell Biotechnologies)

[2] = target: T2, IKZF1 (Homo sapiens, UniProt Q13422+Q96SW2); assay: as above; type: cell-based
T2 construct: effects of the compounds of the present disclosure on the expression of target proteins in cells; endogenous in cells; host or cells: human PBMCs (Milecell Biotechnologies)
T2 sequence (Q13422 whole entry): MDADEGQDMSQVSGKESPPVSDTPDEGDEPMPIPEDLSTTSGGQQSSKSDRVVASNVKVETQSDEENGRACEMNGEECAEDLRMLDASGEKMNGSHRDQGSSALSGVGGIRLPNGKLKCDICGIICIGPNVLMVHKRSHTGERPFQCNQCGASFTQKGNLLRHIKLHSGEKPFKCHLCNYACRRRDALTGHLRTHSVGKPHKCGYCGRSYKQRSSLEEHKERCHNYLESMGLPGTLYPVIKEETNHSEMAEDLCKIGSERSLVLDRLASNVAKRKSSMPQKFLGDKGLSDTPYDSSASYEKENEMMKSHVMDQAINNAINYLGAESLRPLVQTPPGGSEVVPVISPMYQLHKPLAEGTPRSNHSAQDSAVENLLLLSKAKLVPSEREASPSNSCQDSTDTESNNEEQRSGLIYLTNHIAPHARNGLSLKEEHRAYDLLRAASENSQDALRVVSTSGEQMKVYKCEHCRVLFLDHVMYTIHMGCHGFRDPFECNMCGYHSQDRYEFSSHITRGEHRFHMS
T2 sequence (Q96SW2 whole entry): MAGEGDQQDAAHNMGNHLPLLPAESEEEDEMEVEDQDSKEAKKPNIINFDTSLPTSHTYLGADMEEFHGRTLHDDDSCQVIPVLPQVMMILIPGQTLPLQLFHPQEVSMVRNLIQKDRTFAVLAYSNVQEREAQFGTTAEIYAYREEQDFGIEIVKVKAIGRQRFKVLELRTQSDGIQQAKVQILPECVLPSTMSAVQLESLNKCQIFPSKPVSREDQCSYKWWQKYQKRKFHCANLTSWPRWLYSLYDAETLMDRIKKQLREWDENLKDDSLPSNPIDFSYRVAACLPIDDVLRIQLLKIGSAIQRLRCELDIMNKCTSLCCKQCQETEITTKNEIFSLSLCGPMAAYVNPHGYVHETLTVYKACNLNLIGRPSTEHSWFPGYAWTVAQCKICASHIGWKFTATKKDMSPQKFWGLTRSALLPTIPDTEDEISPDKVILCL
T2 sequence (Q16531 whole entry partner): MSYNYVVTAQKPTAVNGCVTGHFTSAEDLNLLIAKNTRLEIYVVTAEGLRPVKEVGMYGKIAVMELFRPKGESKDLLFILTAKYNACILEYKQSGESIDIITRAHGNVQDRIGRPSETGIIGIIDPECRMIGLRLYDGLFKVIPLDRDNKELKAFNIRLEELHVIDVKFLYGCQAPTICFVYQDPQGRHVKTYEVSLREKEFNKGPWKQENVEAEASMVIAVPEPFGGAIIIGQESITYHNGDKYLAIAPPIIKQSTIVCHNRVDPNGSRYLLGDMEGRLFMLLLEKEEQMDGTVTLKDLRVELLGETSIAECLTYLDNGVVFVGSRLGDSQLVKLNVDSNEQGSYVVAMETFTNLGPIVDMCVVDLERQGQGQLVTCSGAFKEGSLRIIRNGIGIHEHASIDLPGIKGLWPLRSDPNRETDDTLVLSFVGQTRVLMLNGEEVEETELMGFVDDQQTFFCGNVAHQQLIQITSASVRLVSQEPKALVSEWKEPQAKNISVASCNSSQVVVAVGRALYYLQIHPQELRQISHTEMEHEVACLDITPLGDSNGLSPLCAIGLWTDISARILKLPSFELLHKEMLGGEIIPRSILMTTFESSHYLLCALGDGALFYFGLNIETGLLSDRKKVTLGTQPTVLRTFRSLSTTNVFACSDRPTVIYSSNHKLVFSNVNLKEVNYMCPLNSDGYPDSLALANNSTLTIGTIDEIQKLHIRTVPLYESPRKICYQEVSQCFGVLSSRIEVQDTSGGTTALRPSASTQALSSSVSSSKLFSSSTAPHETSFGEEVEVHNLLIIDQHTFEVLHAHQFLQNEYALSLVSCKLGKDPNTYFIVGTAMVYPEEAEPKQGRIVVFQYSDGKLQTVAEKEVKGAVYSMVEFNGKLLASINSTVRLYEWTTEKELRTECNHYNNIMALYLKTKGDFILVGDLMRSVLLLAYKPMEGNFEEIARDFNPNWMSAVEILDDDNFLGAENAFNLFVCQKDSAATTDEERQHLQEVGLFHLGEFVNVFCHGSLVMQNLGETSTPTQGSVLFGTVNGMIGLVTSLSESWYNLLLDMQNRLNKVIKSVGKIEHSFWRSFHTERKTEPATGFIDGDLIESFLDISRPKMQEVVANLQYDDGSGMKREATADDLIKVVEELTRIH

[3] = target: T3, IKZF2 (Homo sapiens, UniProt Q96SW2+Q9UKS7); assay: as above; type: cell-based
T3 construct: effects of the compounds of the present disclosure on the expression of target proteins in cells; endogenous in cells; host or cells: human PBMCs (Milecell Biotechnologies)
T3 sequence (Q9UKS7 whole entry): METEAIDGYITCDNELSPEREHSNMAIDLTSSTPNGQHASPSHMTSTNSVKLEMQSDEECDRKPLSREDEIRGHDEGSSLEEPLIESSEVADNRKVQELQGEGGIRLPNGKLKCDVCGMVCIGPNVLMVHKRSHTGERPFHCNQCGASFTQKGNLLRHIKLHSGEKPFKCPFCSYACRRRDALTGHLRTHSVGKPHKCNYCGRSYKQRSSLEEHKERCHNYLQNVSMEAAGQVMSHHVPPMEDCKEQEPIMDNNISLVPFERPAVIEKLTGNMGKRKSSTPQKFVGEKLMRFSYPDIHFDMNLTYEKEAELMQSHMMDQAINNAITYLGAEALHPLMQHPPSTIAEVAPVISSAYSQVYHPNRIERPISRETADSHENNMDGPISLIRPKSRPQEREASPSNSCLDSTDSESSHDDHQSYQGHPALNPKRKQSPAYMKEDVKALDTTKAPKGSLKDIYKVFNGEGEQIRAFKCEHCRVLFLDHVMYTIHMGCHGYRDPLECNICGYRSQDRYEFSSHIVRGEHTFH
T3 sequence (Q96SW2 whole entry): as the sequence (Q96SW2 whole entry) above
T3 sequence (Q16531 whole entry partner): as the sequence (Q16531 whole entry partner) above

[4] = target: T4, IKZF3 (Homo sapiens, UniProt Q96SW2+Q9UKT9); assay: as above; type: cell-based
T4 construct: effects of the compounds of the present disclosure on the expression of target proteins in cells; endogenous in cells; host or cells: human PBMCs (Milecell Biotechnologies)
T4 sequence (Q9UKT9 whole entry): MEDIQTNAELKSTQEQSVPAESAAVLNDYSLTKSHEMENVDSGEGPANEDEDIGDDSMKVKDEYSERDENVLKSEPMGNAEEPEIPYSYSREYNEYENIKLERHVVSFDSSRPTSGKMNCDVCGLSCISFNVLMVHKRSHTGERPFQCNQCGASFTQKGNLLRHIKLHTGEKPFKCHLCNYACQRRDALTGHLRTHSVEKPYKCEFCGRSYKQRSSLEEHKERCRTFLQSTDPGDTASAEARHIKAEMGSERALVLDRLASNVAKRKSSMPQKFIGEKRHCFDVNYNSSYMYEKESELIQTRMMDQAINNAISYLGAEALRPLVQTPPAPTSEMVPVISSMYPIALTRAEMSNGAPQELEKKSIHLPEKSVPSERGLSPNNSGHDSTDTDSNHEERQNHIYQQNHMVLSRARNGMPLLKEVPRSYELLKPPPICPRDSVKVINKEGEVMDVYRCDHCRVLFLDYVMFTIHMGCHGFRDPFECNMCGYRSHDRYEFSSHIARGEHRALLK
T4 sequence (Q96SW2 whole entry): as the sequence (Q96SW2 whole entry) above
T4 sequence (Q16531 whole entry partner): as the sequence (Q16531 whole entry partner) above

[5] = target: T5, WEE1 (Homo sapiens, UniProt P30291+Q96SW2); assay: as above; type: cell-based
T5 construct: effects of the compounds of the present disclosure on the expression of target proteins in cells; endogenous in cells; host or cells: human PBMCs (Milecell Biotechnologies)
T5 sequence (P30291 whole entry): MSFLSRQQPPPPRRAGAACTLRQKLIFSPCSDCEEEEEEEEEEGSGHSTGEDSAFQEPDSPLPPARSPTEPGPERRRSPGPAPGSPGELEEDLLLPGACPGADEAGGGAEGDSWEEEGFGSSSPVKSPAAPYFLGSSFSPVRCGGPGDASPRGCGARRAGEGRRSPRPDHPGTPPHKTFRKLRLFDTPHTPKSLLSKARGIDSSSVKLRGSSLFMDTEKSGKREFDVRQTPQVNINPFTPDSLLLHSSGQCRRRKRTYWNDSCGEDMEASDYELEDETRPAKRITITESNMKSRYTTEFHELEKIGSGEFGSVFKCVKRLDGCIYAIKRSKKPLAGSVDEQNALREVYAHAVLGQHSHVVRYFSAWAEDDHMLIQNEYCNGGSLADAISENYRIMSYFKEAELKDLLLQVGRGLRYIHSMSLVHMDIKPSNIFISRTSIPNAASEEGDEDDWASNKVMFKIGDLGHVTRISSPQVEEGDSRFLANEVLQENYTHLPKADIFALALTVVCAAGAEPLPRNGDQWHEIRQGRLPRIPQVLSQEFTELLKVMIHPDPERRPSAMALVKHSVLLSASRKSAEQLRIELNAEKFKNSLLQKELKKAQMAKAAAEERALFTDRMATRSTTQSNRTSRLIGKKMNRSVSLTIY
T5 sequence (Q96SW2 whole entry): as the sequence (Q96SW2 whole entry) above
T5 sequence (Q16531 whole entry partner): as the sequence (Q16531 whole entry partner) above

[6] = system: GSPT1; assay: as above; type: cell-based, Human
[7] = target: T6, human Cereblon WT GST-tagged protein (Homo sapiens, UniProt Q96SW2); assay: CRBN-binding affinity, HTRF (CEREBLON BINDING kit); details: for inhibition at 0.5 µM: read-out: Inhibition Rate at 0.5 µM (%); for inhibition at 2 µM: read-out: Inhibition Rate at 2 µM (%)
T6 construct: purchased CISBIO 64BDCRBNPEH
T6 sequence (Q96SW2 whole entry): as the sequence (Q96SW2 whole entry) above

[8] = system: Human multiple myeloma cell (MM.1S); assay: Tumor cell proliferation inhibition (CellTiter-Meiluncell luminescent cell viability assay); details: for inhibition at 0.01 µM / inhibition at 0.5 µM: Homo sapiens, MM1.S, 96 h; for inhibition at 0.01 µM: read-out: Inhibition Rate at 10 nM (%); for inhibition at 0.5 µM: read-out: Inhibition Rate at 500 nM (%)
[9] = system: Human multiple myeloma peripheral blood B lymphocyte cell (RPMI-8226); assay: as above; details: RPMI-8226, 96 h; for inhibition at 0.01 µM: read-out: Inhibition Rate at 10 nM (%); for inhibition at 0.5 µM: read-out: Inhibition Rate at 500 nM (%)
[10] = system: Human acute T lymphocytic leukemia cell (Molt4); assay: as above; details: MOLT-4, 96 h; for inhibition at 0.01 µM: read-out: Inhibition Rate at 10 nM (%); for inhibition at 0.5 µM: read-out: Inhibition Rate at 500 nM (%)
[11] = system: Human myeloid monocytic leukemia cell (MV-4-11); assay: as above; details: MV4-11, 96 h; for inhibition at 0.01 µM: read-out: Inhibition Rate at 10 nM (%); for inhibition at 0.5 µM: read-out: Inhibition Rate at 500 nM (%)
Method: (§1) The tumor cells used herein were cultured in a cell culture medium listed in table 2 at 37°C in an incubator with 5% CO2. Prior to experimentation, all cell lines used were correctly identified by STR profiling, and tested negative for mycoplasma contamination using a mycoplasma detection kit through routine screenings.
(§2) The IC50 values of the compounds of the present disclosure (including the compounds in Table 1 and Examples) were determined using the CellTiter-Meiluncell Luminescent Cell Viability Assay Kit from Dalian Meilun Biotech Co., Ltd. The detailed procedure is as follows: Tumor cells were seeded in 96-well cell culture plates at the densities specified in Table 3. On the following day, the test compounds of the present disclosure were subjected to serial dilution. The dilution can be performed according to one of the following two methods: • (1) The first dilution method: The test compounds of the present disclosure (including the compounds in Table 1 and Examples) were subjected to 5-fold serial dilutions starting from a highest concentration of 2000 µM, resulting in a total of 9 concentrations from high to low (2000, 400, 80, 16, 3.2, 0.64, 0.128, 0.0256, 0.00512 µM). Subsequently, 0.5 µL of the test compound dilution was transferred into the 96-well plate containing the cells, with each well containing 100 µL of cell culture medium. […] Into the 96-well plate, the diluted test compounds and corresponding detection reagents were added, resulting in final test compound concentrations of 500 nM and 10 nM, respectively. The experimental procedure is described below using the diluted 2 µM test compound as an example.
(§3) 0.5 µL of the aforementioned diluted compound of the present disclosure (including the compounds in Table 1 and Examples) was added to the seeded cells in 100 µL of medium, yielding a final test compound concentration of 10 nM. After the cells were treated with the compounds of the present disclosure for a specified period, the cell viability assay reagent was added to the culture medium according to the kit's instructions to determine cell viability. […] All controls were treated using the same procedure as the compounds of the present disclosure. The growth inhibition curves for the compounds of the present disclosure were plotted using Prism GraphPad software, and the IC50 values were calculated therefrom.

[12] = system: Human breast cancer cell (MCF-7); assay: as above; details: MCF7, 96 h; for inhibition at 0.5 µM: read-out: Inhibition Rate at 500 nM (%); for inhibition at 0.01 µM: read-out: Inhibition Rate at 10 nM (%)
[13] = system: Human T cell acute lymphoblastic leukemia cell (CCRF-CEM); assay: as above; details: 96 h; for inhibition at 0.01 µM: read-out: Inhibition Rate at 10 nM (%); for inhibition at 0.5 µM: read-out: Inhibition Rate at 500 nM (%)
Method: as §1, §2, §3

[14] = system: Human acute myeloid leukemia cell line: Kasumi-1; assay: as above; details: Kasumi 1, 96 h; for inhibition at 0.01 µM: read-out: Inhibition Rate at 10 nM (%); for inhibition at 0.5 µM: read-out: Inhibition Rate at 500 nM (%)
[15] = system: Human T lymphocytic leukemia cell line: Jurkat; assay: as above; details: 96 h; for inhibition at 0.01 µM: read-out: Inhibition Rate at 10 nM (%); for inhibition at 0.5 µM: read-out: Inhibition Rate at 500 nM (%)
[16] = Western blot, 24 hours of compound treatment, compounds tested at 50 nM and 500 nM (concentration for the table not stated)
[17] = 24 hours treatment, compounds at 50 nM and 500 nM (concentration behind the class not stated)

T1 sequence (P48729 whole entry): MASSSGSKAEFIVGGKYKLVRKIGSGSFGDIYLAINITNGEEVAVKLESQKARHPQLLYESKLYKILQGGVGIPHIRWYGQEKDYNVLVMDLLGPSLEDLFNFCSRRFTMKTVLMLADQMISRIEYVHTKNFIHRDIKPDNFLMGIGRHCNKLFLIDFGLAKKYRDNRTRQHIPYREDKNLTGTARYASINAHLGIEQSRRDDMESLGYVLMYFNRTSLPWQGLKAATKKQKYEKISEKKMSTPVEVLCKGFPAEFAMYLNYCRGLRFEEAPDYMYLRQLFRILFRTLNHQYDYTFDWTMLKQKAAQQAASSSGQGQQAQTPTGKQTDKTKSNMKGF
T1 sequence (Q96SW2 whole entry): as the sequence (Q96SW2 whole entry) above
T1 sequence (Q16531 whole entry partner): as the sequence (Q16531 whole entry partner) above

Row | SMILES | inhibition at 0.5 µM [7] | inhibition at 2 µM [7] | inhibition at 0.01 µM [8] | inhibition at 0.5 µM [8] | inhibition at 0.01 µM [9] | inhibition at 0.5 µM [9] | inhibition at 0.01 µM [10] | inhibition at 0.5 µM [10] | inhibition at 0.01 µM [11] | inhibition at 0.5 µM [11] | inhibition at 0.5 µM [12] | inhibition at 0.01 µM [13] | inhibition at 0.5 µM [13] | inhibition at 0.01 µM [14] | inhibition at 0.5 µM [14] | inhibition at 0.01 µM [15] | inhibition at 0.5 µM [15] | CK1α substrate protein remaining % [1, 17] | IKZF 1 substrate protein remaining % [2, 17] | IKZF2 substrate protein remaining % [3, 17] | other results
1 | O=C1CCC(N2Cc3cc(CN4CCC(N(c5ccccc5)c5ccccn5)CC4)ccc3C2=S)C(=O)N1 (stereo not shown) [GT-07846, 3-(5-((4-(phenyl(pyridin-2-yl)amino)piperidin-1-yl)methyl)-1-thioxoisoindolin-2-yl)piperidine-2,6-dione] | 53 to 60% | 80 to 100% | 60 to 70% | 80 to 100% | 20 to 30% | 60 to 70% | 70 to 80% | 80 to 100% | 10 to 18% | 80 to 100% | 40 to 50% | 40 to 50% | 80 to 100% | 40 to 50% | 80 to 100% | 30 to 40% | 80 to 100% |  |  |  | CK1α substrate protein remaining % [1, 16]: B (80%< substrate protein remaining %≤ 100%); IKZF 1 substrate protein remaining % [2, 16]: A (0% ≤ substrate protein remaining % ≤ 80%); IKZF2 substrate protein remaining % [3, 16]: A (0% ≤ substrate protein remaining % ≤ 80%); IKZF3 substrate protein remaining % [4, 16]: A (0% ≤ substrate protein remaining % ≤ 80%); Wee1 substrate protein remaining % [5, 16]: A (0% ≤ substrate protein remaining % ≤ 80%); GSPT1 substrate protein remaining % [6, 16]: A (0% ≤ substrate protein remaining % ≤ 80%)
2 | O=C1CCC(N2Cc3cc(CN4CCN(Cc5ccccc5-c5ccc(Cl)cc5)CC4)ccc3C2=S)C(=O)N1 (stereo not shown) [GT-08166, 3-(5-((4-((4'-chloro-[1,1'-biphenyl]-2-yl)methyl)piperazin-1-yl)methyl)-1-thioxoisoindolin-2-yl)piperidine-2,6-dione] | 20 to 30% | 60 to 80% | 40 to 50% | 80 to 100% | 10 to 20% | 60 to 70% | 10 to 20% | 80 to 100% | 30 to 40% | 80 to 100% | 60 to 70% | 10 to 20% | 80 to 100% | 10 to 20% | 80 to 100% | 10 to 20% | 80 to 100% | B (80%< substrate protein remaining %≤ 100%) | B (80%< substrate protein remaining %≤ 100%) | A (0% ≤ substrate protein remaining % ≤ 80%) | IKZF3 substrate protein remaining % [4, 17]: A (0% ≤ substrate protein remaining % ≤ 80%); Wee1 substrate protein remaining % [5, 17]: A (0% ≤ substrate protein remaining % ≤ 80%); GSPT1 substrate protein remaining % [6, 17]: A (0% ≤ substrate protein remaining % ≤ 80%)
3 | O=C1CCC(N2Cc3cc(CN4CC=C(c5cccs5)CC4)ccc3C2=S)C(=O)N1 (stereo not shown) [GT-08171, 3-(5-((4-(thiophen-2-yl)-3,6-dihydropyridin-1(2H)-yl)methyl)-1-thioxoisoindolin-2-yl)piperidine-2,6-dione] | 60 to 80% | 80 to 100% | 50 to 60% | 80 to 100% | 20 to 30% | 80 to 100% | 80 to 100% | 80 to 100% | 60 to 80% | 80 to 100% | 70 to 80% | 70 to 80% | 80 to 100% | 30 to 40% | 80 to 100% | 40 to 50% | 80 to 100% | A (0% ≤ substrate protein remaining % ≤ 80%) | A (0% ≤ substrate protein remaining % ≤ 80%) | A (0% ≤ substrate protein remaining % ≤ 80%) | IKZF3 substrate protein remaining % [4, 17]: A (0% ≤ substrate protein remaining % ≤ 80%); Wee1 substrate protein remaining % [5, 17]: A (0% ≤ substrate protein remaining % ≤ 80%); GSPT1 substrate protein remaining % [6, 17]: A (0% ≤ substrate protein remaining % ≤ 80%); inhibition at 0.01 µM [12]: 20 to 30%
4 | O=C1CCC(N2Cc3cc(CN4CC=C(c5ccsc5)CC4)ccc3C2=S)C(=O)N1 (stereo not shown) [GT-08172, 3-(5-((4-(thiophen-3-yl)-3,6-dihydropyridin-1(2H)-yl)methyl)-1-thioxoisoindolin-2-yl)piperidine-2,6-dione] | 80 to 100% | 80 to 100% | 40 to 50% |  | 20 to 30% | 80 to 100% | 60 to 70% | 80 to 100% | 60 to 80% | 80 to 100% | 70 to 80% | 60 to 70% | 80 to 100% | 20 to 30% | 80 to 100% | 50 to 60% | 80 to 100% | A (0% ≤ substrate protein remaining % ≤ 80%) | A (0% ≤ substrate protein remaining % ≤ 80%) | A (0% ≤ substrate protein remaining % ≤ 80%) | IKZF3 substrate protein remaining % [4, 17]: A (0% ≤ substrate protein remaining % ≤ 80%); Wee1 substrate protein remaining % [5, 17]: A (0% ≤ substrate protein remaining % ≤ 80%); GSPT1 substrate protein remaining % [6, 17]: A (0% ≤ substrate protein remaining % ≤ 80%); Inhibition Rate at 500 nM (%) ([8]; MM.1S, 500 nM, 96 hours): la10; inhibition at 0.01 µM [12]: 50 to 60%
5 | O=C1CCC(N2Cc3cc(CN4CC=C(c5cccc(F)c5Cl)CC4)ccc3C2=S)C(=O)N1 (stereo not shown) [GT-08206, 3-(5-((4-(2-chloro-3-fluorophenyl)-3,6-dihydropyridin-1(2H)-yl)methyl)-1-thioxoisoindolin-2-yl)piperidine-2,6-dione] | 40 to 53% | 80 to 100% | 50 to 60% | 80 to 100% | 80 to 100% | 80 to 100% | 70 to 80% | 80 to 100% | 80 to 100% | 80 to 100% | 80 to 100% | 80 to 100% | 80 to 100% | 60 to 70% | 80 to 100% | 50 to 60% | 80 to 100% |  |  |  | CK1α substrate protein remaining % [1, 16]: A (0% ≤ substrate protein remaining % ≤ 80%); IKZF 1 substrate protein remaining % [2, 16]: A (0% ≤ substrate protein remaining % ≤ 80%); IKZF2 substrate protein remaining % [3, 16]: A (0% ≤ substrate protein remaining % ≤ 80%); IKZF3 substrate protein remaining % [4, 16]: A (0% ≤ substrate protein remaining % ≤ 80%); Wee1 substrate protein remaining % [5, 16]: A (0% ≤ substrate protein remaining % ≤ 80%); GSPT1 substrate protein remaining % [6, 16]: A (0% ≤ substrate protein remaining % ≤ 80%); inhibition at 0.01 µM [12]: 0 to 5%
6 | Cc1cc(C2=CCN(Cc3ccc4c(c3)CN(C3CCC(=O)NC3=O)C4=S)CC2)cs1 (stereo not shown) [GT-08327, 3-(5-((4-(5-methylthiophen-3-yl)-3,6-dihydropyridin-1(2H)-yl)methyl)-1-thioxoisoindolin-2-yl)piperidine-2,6-dione] | 53 to 60% | 80 to 100% | 40 to 50% | 80 to 100% | 10 to 20% | 80 to 100% | 10 to 20% | 80 to 100% | 40 to 60% | 80 to 100% | 70 to 80% | 30 to 40% | 80 to 100% | 30 to 40% | 80 to 100% | 20 to 30% | 80 to 100% | A (0% ≤ substrate protein remaining % ≤ 80%) | A (0% ≤ substrate protein remaining % ≤ 80%) | A (0% ≤ substrate protein remaining % ≤ 80%) | IKZF3 substrate protein remaining % [4, 17]: A (0% ≤ substrate protein remaining % ≤ 80%); Wee1 substrate protein remaining % [5, 17]: A (0% ≤ substrate protein remaining % ≤ 80%); GSPT1 substrate protein remaining % [6, 17]: A (0% ≤ substrate protein remaining % ≤ 80%); inhibition at 0.01 µM [12]: 0 to 5%
